Test system: Influenza A virus
Test: Antiviral activity against Influenza A virus (A/Memphis/1/71(H3N2)) in MDCK cells after 16 hrs by focus forming assay
Type: functional, organism-based, Influenza A virus (A/Memphis/1/1971(H3N2))

Row | SMILES | IC50 [µM]
1 | O=C(O[C@@H]1Cc2ccccc2O[C@@H]1c1cc(O)c(O)c(O)c1)c1cc(O)c(O)c(O)c1 | 11.9
2 | O=C(O[C@@H]1Cc2c(O)cc(O)cc2O[C@@H]1c1cc(O)c(O)c(O)c1)c1cc(O)c(O)c(O)c1 [EPIGALOCATECHIN GALLATE] | 41.2
